Consider five molecules from ChEMBL document CHEMBL1135149, “Syntheses of depsipeptide analogues of the insect neuropeptide proctolin” (2002).

Non-standard residues stand in square brackets, D forms with d. Residues, ends and D or L forms follow the SMILES beside them. *: point of attachment. Hpla = O=C(O)[C@@H](O)Cc1ccc(O)cc1; Hica(2S) = CC(C)C[C@H](O)C(=O)O; X1 = C[C@@H](O)[C@H](O*)C(=O)O

This assay deals with Locusta migratoria. Kind of assay: Myotropic effect was assessed in vitro, using an isometric muscle contraction bioassay employing isolated hindguts from the locust Locusta migratoria at 1 uM/L. In kind it is functional, Muscle tissue.
Regarding `CC(C)C[C@H](OC(=O)[C@H](Cc1ccc(O)cc1)NC(=O)[C@@H](N)CCCN=C(N)N)C(=O)N1CCC[C@H]1C(=O)O[C@H](C(=O)O)[C@@H](C)O.O=C(O)C(F)(F)F.O=C(O)C(F)(F)F.O=C(O)C(F)(F)F` (H-RY[Hica(2S)]P-X1), the Isometric contraction worked out at 27%.
Molecule `CC(C)C[C@H](OC(=O)[C@H](Cc1ccc(O)cc1)NC(=O)[C@@H](N)CCCN=C(N)N)C(=O)N1CCC[C@H]1C(=O)N[C@H](C(=O)O)[C@@H](C)O.O=C(O)C(F)(F)F.O=C(O)C(F)(F)F.O=C(O)C(F)(F)F` (H-RY[Hica(2S)]PT-OH) came in with an Isometric contraction of 30%.
As to `CC(C)C[C@H](NC(=O)[C@H](Cc1ccc(O)cc1)NC(=O)[C@@H](N)CCCN=C(N)N)C(=O)N1CCC[C@H]1C(=O)O[C@H](C(=O)O)[C@@H](C)O.O=C(O)C(F)(F)F.O=C(O)C(F)(F)F.O=C(O)C(F)(F)F` (H-RYLP-X1), the Isometric contraction was 106%.
The value for H-RYLPT-OH [PROCTOLIN] was 100%.
Molecule `CC(C)C[C@H](NC(=O)[C@H](Cc1ccc(O)cc1)OC(=O)[C@@H](N)CCCN=C(N)N)C(=O)N1CCC[C@H]1C(=O)N[C@H](C(=O)O)[C@@H](C)O.O=C(O)C(F)(F)F.O=C(O)C(F)(F)F.O=C(O)C(F)(F)F` (H-R[Hpla]LPT-OH) showed an Isometric contraction of 66%.
